IC50 data for 20 compounds are collected here from patent US20250289789A1, “REVERSIBLE LYSINE COVALENT MODIFIERS OF CDK2 AND USES THEREOF” (Terremoto Biosciences, Inc., priority 2023, published 2025).

Holding throughout (assay type): cell-based
For assay [1], the target named is T1, CDK2-NanoLuc fusion with CCNE1 in 293T or 293 cells (Homo sapiens, UniProt P24941).
T1 construct: host or cells: 293T (ATCC CRL-3216) or 293 (ATCC CRL-1573)
Briefly: NanoBRET Target Engagement (TE) Intracellular Kinase Assay, CDK2/CCNE1. The conditions noted are these: NanoBRET TE intracellular kinase assay, 2-hour incubation, read-out: NanoBRET-CDK2/E1 IC50. On the procedure: (§1) Inhibitory effects of compounds were measured in NanoBRET TE Intracellular Kinase Assay. […] Cells were co-transfected with 1 μg/mL of CDK-NanoLuc Fusion Vector (Promega; NV2701 for CDK1, NV2781 for CDK2, NV2811 for CDK4, NV2841 for CDK6) and 1 μg/mL of the corresponding Cyclin Expression Vector (Promega; NV2601 for CCNB1, NV2641 for CCNE1, NV2621 for CCND1, NV2631 for CCND3) using FuGENE HD Transfection Reagent (Promega; E2311). […] 20 uL/well of 3× Intracellular TE Nano-Glo Substrate/Inhibitor (Promega; N2162) were added to 384-well plates and incubated for 3 minutes at room temperature. NanoBRET signals (donor emission wavelength at 450 nm, acceptor emission wavelength at 610 nm) were measured using Envision plate reader (PerkinElmer). NanoBRET ratio was calculated by: BRET Ratio=raw signal for acceptor/raw signal for donor. Dose response curve normalized to DMSO control was plotted using four-parameter logistic model for IC50 calculation.

Assay [2] addresses T2, CDK4-NanoLuc fusion with CCND1 in 293T or 293 cells (Homo sapiens, UniProt P11802).
T2 construct: host or cells: 293T (ATCC CRL-3216) or 293 (ATCC CRL-1573)
Kind of assay: NanoBRET Target Engagement (TE) Intracellular Kinase Assay, CDK4/CCND1. Particulars: NanoBRET TE intracellular kinase assay, 2-hour incubation, read-out: NanoBRET-CDK4/D1 IC50. On the procedure: as §1
(In general: Bioluminescence resonance energy transfer reports proximity on the nanometre scale.)

Assay [3] has as its system Phospho-Rb Ser807/811 in OVCAR3 cells. Briefly: OVCAR3 Phospho-Rb Ser807/811 HTRF assay. The conditions noted are these: OVCAR3 cells, Phospho-Rb Ser807/811 HTRF, 1 hour incubation, read-out: pRb-OVCAR3 IC50. On the procedure: Cells were trypsinized and resuspended in 1 mM hydroxyurea (Sigma; H8627), 90% RPMI and 10% fetal bovine serum. […] Dose response curve normalized to DMSO control was plotted using four-parameter logistic model for IC50 calculation.

Where two headings read alike, the source gives them in different places. Where only a bound is given, the exact number is not on record here.

T2 sequence (P11802 whole entry, the tested form may be a part): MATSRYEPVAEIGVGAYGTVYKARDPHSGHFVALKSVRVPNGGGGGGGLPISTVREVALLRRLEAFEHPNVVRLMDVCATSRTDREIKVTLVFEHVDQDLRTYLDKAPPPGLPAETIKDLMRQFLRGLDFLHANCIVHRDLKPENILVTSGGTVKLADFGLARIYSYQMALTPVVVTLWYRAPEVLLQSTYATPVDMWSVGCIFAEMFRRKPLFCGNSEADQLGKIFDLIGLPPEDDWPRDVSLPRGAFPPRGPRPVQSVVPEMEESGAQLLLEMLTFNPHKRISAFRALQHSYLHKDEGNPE
T2 sequence (P24385 whole entry partner, the tested form may be a part): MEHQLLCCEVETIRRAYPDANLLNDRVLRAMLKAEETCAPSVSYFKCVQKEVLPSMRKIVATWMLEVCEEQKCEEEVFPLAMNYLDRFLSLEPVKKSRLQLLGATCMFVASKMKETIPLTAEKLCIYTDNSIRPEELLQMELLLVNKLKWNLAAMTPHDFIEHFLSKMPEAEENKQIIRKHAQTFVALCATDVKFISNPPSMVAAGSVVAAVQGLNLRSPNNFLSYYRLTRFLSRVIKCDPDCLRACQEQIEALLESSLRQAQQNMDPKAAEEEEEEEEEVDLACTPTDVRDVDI

On to `COc1cc(O)c(C=O)c2c1CC(C(=O)Nc1cc([C@H]3CC[C@@H](OC(=O)N4CCCN4C)C3)[nH]n1)C2` (single isomer, unassigned) [Compound 262, (1R,3S)-3-(3-((*)-4-formyl-5-hydroxy-7-methoxy-2,3-dihydro-1H-indene-2-carboxamido)-1H-pyrazol-5-yl)cyclopentyl 2-methylpyrazolidine-1-carboxylate], for which the IC50 is 0.00442 µM in assay [1], 5.08 µM in assay [2] and 0.0518 µM in assay [3].

As for `COc1cc(O)c(C=O)c2c1CC(C(=O)Nc1cc([C@H]3CC[C@@H](OC(=O)N4CCCN4C)C3)[nH]n1)C2` (single isomer, unassigned) [Compound 263, (1R,3S)-3-(3-((*)-4-formyl-5-hydroxy-7-methoxy-2,3-dihydro-1H-indene-2-carboxamido)-1H-pyrazol-5-yl)cyclopentyl 2-methylpyrazolidine-1-carboxylate], the IC50 turned out to be 0.0633 µM in assay [1], 0.735 µM in assay [2] and 7.74 µM in assay [3].

For `COc1cc(O)c(C=O)c2c1CC(C(=O)Nc1cc([C@H]3CC[C@@H](OC(=O)NN(C)CC(F)(F)F)C3)[nH]n1)C2` (single isomer, unassigned) [Compound 264, (1R,3S)-3-(3-((*)-4-formyl-5-hydroxy-7-methoxy-2,3-dihydro-1H-indene-2-carboxamido)-1H-pyrazol-5-yl)cyclopentyl 2-methyl-2-(2,2,2-trifluoroethyl)hydrazine-1-carboxylate], the IC50 came out at 0.00595 µM in assay [1], 0.512 µM in assay [2] and 0.0136 µM in assay [3].

As for `COc1cc(O)c(C=O)c2c1CC(C(=O)Nc1cc([C@H]3CC[C@@H](OC(=O)NN(C)CC(F)(F)F)C3)[nH]n1)C2` (single isomer, unassigned) [Compound 265, (1R,3S)-3-(3-((*)-4-formyl-5-hydroxy-7-methoxy-2,3-dihydro-1H-indene-2-carboxamido)-1H-pyrazol-5-yl)cyclopentyl 2-methyl-2-(2,2,2-trifluoroethyl)hydrazine-1-carboxylate], the IC50 in assay [1] came to 0.0155 µM; in assay [2], 0.132 µM; in assay [3], 0.567 µM.

Consider `COc1cc(O)c(C=O)c2c1CC(C(=O)Nc1cc([C@H]3CC[C@@H](OC(=O)N4CCCCN4C)C3)[nH]n1)C2` (single isomer, unassigned) [Compound 266, (1R,3S)-3-(3-((*)-4-formyl-5-hydroxy-7-methoxy-2,3-dihydro-1H-indene-2-carboxamido)-1H-pyrazol-5-yl)cyclopentyl 2-methyltetrahydropyridazine-1(2H)-carboxylate], for which the IC50 was 0.00199 µM in assay [1], 1.98 µM in assay [2] and 0.123 µM in assay [3].

`COc1cc(O)c(C=O)c2c1CC(C(=O)Nc1cc([C@H]3CC[C@@H](OC(=O)N4CCCCN4C)C3)[nH]n1)C2` (single isomer, unassigned) [Compound 267, (1R,3S)-3-(3-((*)-4-formyl-5-hydroxy-7-methoxy-2,3-dihydro-1H-indene-2-carboxamido)-1H-pyrazol-5-yl)cyclopentyl 2-methyltetrahydropyridazine-1(2H)-carboxylate]: the results for the IC50 in assay [1], in assay [2] and in assay [3] were 0.0218 µM, 0.266 µM and 5.23 µM, respectively.

With `COc1cc(O)c(C=O)c2c1CC(C(=O)Nc1cc([C@H]3CC[C@@H](OC(=O)NN(C)C)C3)n[nH]1)C2` (single isomer, unassigned) [Compound 268, (1R,3S)-3-(3-((*)-4-formyl-5-hydroxy-7-methoxy-2,3-dihydro-1H-indene-2-carboxamido)-1H-pyrazol-5-yl)cyclopentyl 2,2-dimethylhydrazine-1-carboxylate], the IC50 worked out at 0.0108 µM in assay [1], 4.94 µM in assay [2] and 0.0859 µM in assay [3].

Regarding `COc1cc(O)c(C=O)c2c1CC(C(=O)Nc1cc([C@H]3CC[C@@H](OC(=O)NN(C)C)C3)n[nH]1)C2` (single isomer, unassigned) [Compound 269, (1R,3S)-3-(3-((*)-4-formyl-5-hydroxy-7-methoxy-2,3-dihydro-1H-indene-2-carboxamido)-1H-pyrazol-5-yl)cyclopentyl 2,2-dimethylhydrazine-1-carboxylate], the IC50 in assay [1] came to 0.0677 µM; in assay [2] it was 0.459 µM; in assay [3], 2.23 µM.

As for `COc1cc(O)c(C=O)c2c1CC(C(=O)Nc1cc([C@H]3C[C@@H](OC(=O)N(C)N(C)C)C3)n[nH]1)C2` (single isomer, unassigned) [Compound 270], the IC50 in assay [1] is 0.00625 µM; in assay [2], more than 10 µM; in assay [3] it was 0.0486 µM.

Regarding `COc1cc(O)c(C=O)c2c1CC(C(=O)Nc1cc([C@H]3C[C@@H](OC(=O)N(C)N(C)C)C3)n[nH]1)C2` (single isomer, unassigned) [Compound 271], the IC50 was 0.24 µM in assay [1], 3.25 µM in assay [2] and more than 10 µM in assay [3].

On to `COc1cc(O)c(C=O)c(OCC(=O)Nc2cc([C@H]3CC[C@@H](OC(=O)NC4(C)CC4(F)F)C3)[nH]n2)c1` (single isomer, unassigned) [Compound 280, (1R,3S)-3-(3-(2-(2-formyl-3-hydroxy-5-methoxyphenoxy)acetamido)-1H-pyrazol-5-yl)cyclopentyl ((*)-2,2-difluoro-1-methylcyclopropyl)carbamate], for which the IC50 in assay [1] was 0.00388 µM; in assay [2] it was 0.576 µM; in assay [3] (Homo sapiens, OVCAR-3, 1 h), 0.0174 µM.

Regarding `COc1cc(O)c(C=O)c(OCC(=O)Nc2cc([C@H]3CC[C@@H](OC(=O)NC4(C)CC4(F)F)C3)[nH]n2)c1` (single isomer, unassigned) [Compound 281, (1R,3S)-3-(3-(2-(2-formyl-3-hydroxy-5-methoxyphenoxy)acetamido)-1H-pyrazol-5-yl)cyclopentyl ((*)-2,2-difluoro-1-methylcyclopropyl)carbamate], the results for the IC50 in assay [1], in assay [2] and in assay [3] were 0.00485 µM, 1.2 µM and 0.0273 µM, respectively.

Turning to `COc1cc(O)c(C=O)c2c1CC(C(=O)Nc1cc([C@H]3C[C@@H](OC(=O)NC(C)C)C3)[nH]n1)C2` (single isomer, unassigned) [Compound 282, (1R,3s)-3-(3-((*)-4-formyl-5-hydroxy-7-methoxy-2,3-dihydro-1H-indene-2-carboxamido)-1H-pyrazol-5-yl)cyclobutyl isopropylcarbamate], the IC50 in assay [1] came out at 0.0053 µM; in assay [2] it was 3.35 µM; in assay [3] (Homo sapiens, OVCAR-3, 1 h), 0.0204 µM.

Take `COc1cc(O)c(C=O)c2c1CC(C(=O)Nc1cc([C@H]3CC[C@@H](OC(=O)NC(C)(C)C)C3)[nH]n1)C2` (single isomer, unassigned) [Compound 283, (1R,3S)-3-(3-((*)-4-formyl-5-hydroxy-7-methoxy-2,3-dihydro-1H-indene-2-carboxamido)-1H-pyrazol-5-yl)cyclopentyl tert-butylcarbamate]: the IC50 is 0.00201 µM in assay [1]; 0.236 µM in assay [2]; 0.0126 µM in assay [3] (Homo sapiens, OVCAR-3, 1 h).

In the case of `COc1cc(O)c(C=O)c2c1CC(C(=O)Nc1cc([C@H]3CC[C@@H](OC(=O)N(C)N(C)C)C3)n[nH]1)C2` (single isomer, unassigned) [Compound 284, (1R,3S)-3-(3-((*)-4-formyl-5-hydroxy-7-methoxy-2,3-dihydro-1H-indene-2-carboxamido)-1H-pyrazol-5-yl)cyclopentyl 1,2,2-trimethylhydrazine-1-carboxylate], the IC50 in assay [1] was 0.00185 µM; in assay [2] it was 2.85 µM; in assay [3] (Homo sapiens, OVCAR-3, 1 h), 0.0292 µM.

In the case of `COc1cc(O)c(C=O)c(OCC(=O)Nc2cc([C@H]3CC[C@@H](OC(=O)N4CC[C@H]4C#N)C3)[nH]n2)c1` (stereo in doubt) [Compound 126], the IC50 was determined as 0.00962 µM in assay [1]; 7.31 µM in assay [2]; 0.0757 µM in assay [3] (Homo sapiens, OVCAR-3, 1 h).

As to `CCOc1cc(O)c(C=O)c(OCC(=O)Nc2cc([C@H]3CC[C@@H](OC(=O)NC4(C)CC4)C3)[nH]n2)c1` [Compound 115], the IC50 in assay [1] is 0.00194 µM; in assay [2] it was 1.24 µM; in assay [3] (Homo sapiens, OVCAR-3, 1 h) it was 0.0163 µM.

`COc1cc(O)c(C=O)c(OCC(=O)Nc2cc([C@H]3CC[C@@H](OC(=O)NCCOC(F)F)C3)n[nH]2)c1` [Compound 116]: the IC50 was determined as 0.0045 µM in assay [1]; 4.36 µM in assay [2]; 0.0323 µM in assay [3] (Homo sapiens, OVCAR-3, 1 h).

On to `COc1cc(O)c(C=O)c(OCC(=O)Nc2cc([C@H]3CC[C@@H](OC(=O)NCCOC(F)(F)F)C3)n[nH]2)c1` [Compound 117], for which the IC50 in assay [1] was 0.00219 µM; in assay [2] it was 8.09 µM; in assay [3] (Homo sapiens, OVCAR-3, 1 h) it was 0.022 µM.

As for `COc1cc(O)c(C=O)c(OCC(=O)Nc2cc([C@H]3CC[C@@H](OC(=O)N4C[C@H]5C[C@@H]4CS5(=O)=O)C3)n[nH]2)c1` [Compound 118], the IC50 was determined as 0.0554 µM in assay [1]; 6.48 µM in assay [2]; 0.101 µM in assay [3] (Homo sapiens, OVCAR-3, 1 h).
